Series [1] in a line: Observation of the general state and body weight in ovariectomized rats. The class given is in vivo, SD rats. As to conditions: daily observation.
The test system of series [2] is ovariectomized SD rats (rat osteoporosis model), femora. As to the kind of experiment: Animal efficacy test of increasing bone density and preventing osteoporosis (ovariectomized rat osteoporosis model). The class given is in vivo. The conditions noted are these: left femora, 0.1 mg/100 g per day oral gavage, three months, N = 12, x ± s.d.

`CCCCC(=O)O[C@H]1CC[C@H]2[C@@H]3CCc4cc(O)ccc4[C@H]3CC[C@]12C` [positive control, estradiol valerate]: in series [1], the “general state (exterior signs, behaviors, fecal property) compared with the model control group” value was “did not have significant difference in terms of exterior signs, behaviors, fecal property”. Moreover, in series [2], the bone calcium content was 178.2 ± 29.3 mg/g and the “bone density BMD” value turned out to be 0.207 ± 0.010 g/mL.

The values are drawn from patent publication US20170014462A1, “BONE AND JOINT PROTECTION COMPOSITION AND USE THEREOF” (INFINITUS (CHINA) COMPANY LTD., priority 2015, published 2017).
